For one data set, the system named is IBS-C patients. The note with it: published trial, 12 weeks; drug arm; cited from earlier work.
Data set [1] relates to methane production by stool samples from IBS-C patients. Kind of data set: Methane production by human stool in vitro. It counts as cell-based. The source says:
Data are change from baseline (ΔCH4 ppm) in headspace methane. […] Error bars are SD. P values are significance of change from baseline (paired t-test).
The second principle, without wishing to be bound by theory, is to reduce the pre-systemic conversion of lovastatin lactone to the β-hydroxyacid metabolite. […] Conversion of lovastatin lactone to β-hydroxyacid occurs in stomach acid and through the action of plasma, intestinal and liver esterases; some conversion may also be catalysed by intestinal bacteria.
The potential methane-reducing effect of lovastatin lactone concentrations in the stool of healthy volunteers was estimated by comparison of stool concentrations to lovastatin lactone concentrations used to inhibit methane production in stool samples from an IBS-C patient in vitro.

Data set [2] concerns human and rat fecal bacterial enzyme fractions. The note with it: 12 h incubation; cited from earlier work.
Data set [3] is described as follows: Binary stress testing of lovastatin with formulation excipients (HPLC). The note with it: alone, over a range of conditions.
Experimental: The compatibility of lovastatin drug substance with formulation excipients was evaluated in binary stress testing studies where 1:1 mixtures of lovastatin and each excipient were stored for 7 days under different conditions of temperature and relative humidity (RH). Samples were analyzed by HPLC (based on USP methods) at day 0 and day 7.
For data set [4] the following is noted: cited from earlier work.
The conditions of data set [5]: cited from earlier work. This is another data set of the same source.
For data set [6] the following is noted: pylorus-ligated rats, within 30 minutes; cited from earlier work.
Another data set deals with M. smithii. Kind of data set: M. smithii colonized high-fat diet rats, qPCR of bowel segments. It counts as in vivo, Sprague-Dawley rats. Here is the method:
The rats were assessed for increased M. smithii by qPCR before and after the diet, and then divided into 3 groups. […] Each group was gavaged daily for 10 days. Three day stool collections were performed to assess average stool wet weight and daily variability prior to commencing the high fat diet, after 7 weeks of high-fat diet, and the final days of the lovastatin gavage (still on high-fat diet). On day 10 of the gavage, rats were euthanized and DNA was extracted from contents of ligated bowel segments (duodenum, jejunum, ileum, cecum and left colon). qPCR was performed using primers for total luminal bacteria and M. smithii.
A general note: In qPCR the cycle at which signal appears reflects the starting amount.

A short description of another data set: physchem. The settings on record: for solubility: Solubility (room temp). An excerpt:
Lovastatin was produced, analyzed and released using methodology known in the art.

Where [7] appears, read: stool samples from IBS-C patients in vitro.
Where [8] appears, read: Cecum, 1.5 mg/rat daily for 10 days.
Setting [9] is: Duodenum, 1.5 mg/rat gavage daily for 10 days.
The mark [10] stands for this setting: Jejunum, 1.5 mg/rat daily for 10 days.
Where [11] appears, read: Left Colon, 1.5 mg/rat daily for 10 days.

A word on the solubility: it is the concentration that dissolves in the medium under given conditions.

≈ marks a conversion by molar mass, not a printed value. Like-named read-outs stand apart in the source and are kept apart here. Marks after values point to notes of the source that are not given here. Peptide text beside a SMILES is read from it.

For `C[C@@H]1NC(=O)[C@@H]2CCCN2C(=O)[C@H](CC(N)=O)NC(=O)[C@@H]2CSSC[C@H](N)C(=O)N[C@H]3CSSC[C@H](NC1=O)C(=O)N[C@@H]([C@@H](C)O)C(=O)NCC(=O)N[C@H](C(=O)N[C@@H](Cc1ccc(O)cc1)C(=O)O)CSSC[C@H](NC(=O)[C@H](Cc1ccc(O)cc1)NC(=O)[C@H](CCC(=O)O)NC3=O)C(=O)N2` [Linaclotide] (HELM PEPTIDE1{C.C.E.Y.C.C.N.P.A.C.T.G.C.Y}$PEPTIDE1,PEPTIDE1,1:R3-6:R3|PEPTIDE1,PEPTIDE1,2:R3-10:R3|PEPTIDE1,PEPTIDE1,5:R3-13:R3$$$V2.0), in the data set with IBS-C patients, the “Abdominal Pain Response, % Subjects” value is 49.5 (36.0) %; the “Bloating Response, % Subjects” value is on record as 43.2 (26.8) %; the “CSBM Response, % Subjects” value was 48.2 (26.1) %; the “Diarrhea Incidence, % Subjects” value was 19.3 (2.8) %. Further, in the data set with IBS-C patients, the “Overall Response, % Subjects” value is on record as 33.6 (17.4) %.
Regarding `CC[C@H](C)C(=O)O[C@H]1C[C@@H](C)C=C2C=C[C@H](C)[C@H](CC[C@@H]3C[C@@H](O)CC(=O)O3)[C@H]21` [Lovastatin], in [1] (0.2 mg/g stool, regression), the “inhibition of methane AUC0-270” value is recorded as 85-90%. For the same compound, in [1] (0.2 mg/g stool, regression), the “methane AUC0-270 as percentage of the control value” is given as 10-15%. Moreover, the “reduction of methane production” value in data set [1] (lovastatin lactone 0.04 mg/g stool, human stool in vitro) is approximately 60%. Also, the “inhibition of methane production” value in data set [1] (lovastatin lactone 0.21-0.25 mg/g stool, in vitro) is given as approximately 90%; in [1] (setting [7]) it was “only effective statin inhibitor”. The “loss of lovastatin lactone” value in data set [2] is 8-19%. In addition, the “stability in binary stress testing” value in data set [3] is recorded as “stable”. Besides, the “pre-portal hydrolysis in vivo after oral administration” value in data set [4] is given as approximately 10%. In data set [5] (human subjects, immediate release dosage form), the “absorption of orally-administered dose” value is approximately 31%. Besides, the “intragastric dose exiting the gastric juice” value in data set [6] is approximately 30%. For the same compound, the “M. smithii/Total Bacteria” value with M. smithii (setting [8]) is 0.20; in the data set on M. smithii (setting [9]), 1.30; in the data set with M. smithii (Ileum, 1.5 mg/rat daily for 10 days, listed as Lactone), 0.19*; with M. smithii (Ileum, 1.5 mg/rat daily for 10 days, listed as lovastatin lactone), “reduced”; in the data set with M. smithii (setting [10]), 0.12; with M. smithii (setting [11]), 0.0029. Besides, the “Solubility (room temp)” value in “physchem” is “methanol 28 mg/mL”. The solubility in the data set “physchem” (organic solvent or mixture) turned out to be 16000 µg/mL (≈ 39.6 mM); in “physchem” (water) it was 0.4 µg/mL (≈ 0.000989 mM).
As to `CCCCC(F)(F)[C@@]1(O)CC[C@H]2[C@@H](CC(=O)[C@@H]2CCCCCCC(=O)O)O1` [Lubiprostone], in the data set on IBS-C patients, the “Abdominal Pain Response, % Subjects” value is 36.7 (25.2) %; the “Bloating Response, % Subjects” value is listed as 32.0 (25.1) %; the “Overall Response, % Subjects” value is reported as 26.3 (15.3) %.
`CC(C)C[C@H](NC(=O)[C@@H]1CSSC[C@@H]2NC(=O)[C@H](CC(C)C)NC(=O)[C@H](CCC(=O)O)NC(=O)[C@@H](NC(=O)[C@H](CCC(=O)O)NC(=O)[C@H](CC(=O)O)NC(=O)[C@@H](N)CC(N)=O)CSSC[C@H](NC(=O)[C@H](C)NC(=O)[C@H](C(C)C)NC(=O)[C@H](CC(N)=O)NC(=O)[C@H](C(C)C)NC2=O)C(=O)N[C@@H]([C@@H](C)O)C(=O)NCC(=O)N1)C(=O)O` [Plecanatide] (HELM PEPTIDE1{N.D.E.C.E.L.C.V.N.V.A.C.T.G.C.L}$PEPTIDE1,PEPTIDE1,4:R3-12:R3|PEPTIDE1,PEPTIDE1,7:R3-15:R3$$$V2.0): in the data set with IBS-C patients, the “Diarrhea Incidence, % Subjects” value was 4.3 (1.0) % and the “Overall Response, % Subjects” value was 25.7 (15.9) %.
`CN1Cc2c(Cl)cc(Cl)cc2[C@H](c2cccc(S(=O)(=O)NCCOCCOCCNC(=O)NCCCCNC(=O)NCCOCCOCCNS(=O)(=O)c3cccc([C@@H]4CN(C)Cc5c(Cl)cc(Cl)cc54)c3)c2)C1` [Tenapanor]: in the data set with IBS-C patients, the “Abdominal Pain Response, % Subjects” value was 65.5 (48.3) %; the “Bloating Response, % Subjects” value is on record as 59.5 (41.6) %; the “CSBM Response, % Subjects” value was 60.7 (33.7) %; the “Diarrhea Incidence, % Subjects” value is listed as 11.2 (0.0) %. In addition, the “Overall Response, % Subjects” value in the data set on IBS-C patients is given as 50.0 (23.6) %.
Take `CC(C)c1c(C(=O)Nc2ccccc2)c(-c2ccccc2)c(-c2ccc(F)cc2)n1CC[C@@H](O)C[C@@H](O)CC(=O)O` [atorvastatin]: the “inhibition of methane production” value in data set [1] (setting [7]) was “ineffective”.
For `CC[C@H](C)C(=O)O[C@H]1C[C@@H](C)C=C2C=C[C@H](C)[C@H](CC[C@@H](O)C[C@@H](O)CC(=O)O)[C@H]21` [lovastatin β-hydroxyacid], the “inhibition of methane production” value in [1] (setting [7]) is “ineffective”. Also, the “absorption of orally-administered dose” value in data set [5] (human, in vivo, po) is 82-100%. Also, the “intragastric dose exiting the gastric juice” value in data set [6] was approximately 30%. The “M. smithii/Total Bacteria” value with M. smithii (setting [8]) was determined as 0.14; with M. smithii (setting [9]) it was 1.41; in the data set with M. smithii (setting [10]), 0.29; with M. smithii (setting [11]), 0.0024.
For `CC(C)c1nc(N(C)S(C)(=O)=O)nc(-c2ccc(F)cc2)c1/C=C/[C@@H](O)C[C@@H](O)CC(=O)O` [rosuvastatin], the “inhibition of methane production” value in data set [1] (setting [7]) was “ineffective”.

Source of the values: patent publication US20200390742A1, “CLINICALLY EFFICACIOUS ANTI-METHANOGENIC COMPOSITIONS AND USES” (Cedars-Sinai Medical Center, priority 2016, published 2020).
